The numbers were not newly measured in patent US12394502B2, “Method for predicting HLA-binding peptides using protein structural features” (The General Hospital Corporation, priority 2019, dated 2025), which cites them from elsewhere.

Data set [1] has as its system ovarian carcinoma patients.
For data set [2] the following is noted: more than 25 clinical trials.
The subject of data set [3] is healthy human volunteers.
Data set [4] has as its system advanced hormone refractory prostate cancer patients. The conditions noted are these: personalized vaccination alone or combined with a low dose of estramustine.
The test system of data set [5] is Stage IV Melanoma Patients. The conditions noted are these: temozolomide combined with peptide vaccination.

Regarding “Polyinosinic-Polycytidylic Acid-poly-L-lysine Carboxymethylcellulose [poly-ICLC]”, in data set [1] (1.4 mg poly-ICLC and Montanide added to OLP, compared to OLP alone or OLP and Montanide, subcutaneous), the “generation of NY-ESO-1-specific CD4+ and CD8+ T cell and antibody responses” value is “markedly enhanced”. In addition, the “patients showing induction of CD4+ and CD8+ T cell, as well as antibody responses to the peptide” value in data set [1] (poly-ICLC in combination with NY-ESO-1 peptide vaccine (in addition to Montanide)) was greater than 90%. For the same compound, the toxicity profile result in data set [2] is given as “relatively benign toxicity profile”. Further, the safety result in data set [3] (human volunteer study) is reported as “safe”. Further, in data set [3] (one single s.c. administration, 8 subjects versus 4 placebo, whole blood), the “differential expression of genes versus placebo” value is recorded as “up to 212 genes”.

Consider `C[C@]12CC[C@@H]3c4ccc(OC(=O)N(CCCl)CCCl)cc4CC[C@H]3[C@@H]1CC[C@@H]2O` [estramustine], for which the “patients with >50% decrease in serum prostate specific antigen (PSA)” value in data set [4] is on record as 54%.

In the case of `Cn1nnc2c(C(N)=O)ncn2c1=O` [temozolomide], the toxicity entry in data set [5] was “low toxicity”.
